These results are taken from US8728442B2, “Method of controlling the growth of microorganisms by a composition containing isolated or in vitro synthesized nitrosoamides” (Bayer CropScience LP, priority 2009, dated 2014).

One may read the MBC as the smallest concentration meeting the test's criterion for killing.

Structures are written as SMILES. Converted amounts (≈) assume the structure as drawn. Where two headings read alike, the source gives them in different places.

One experiment has as its system Penicillium expansum. Kind of experiment: Fungicidal activity, fumigation of Penicillium expansum spore plates in sealed 6 L containers. The format is cell-based. The conditions noted are these: 24 h exposure, further 48 h incubation; for MIC: Penicillium expansum, 24 h. Here is the method: Experiments were conducted to determine the fungicidal activity of several compounds of the invention using Penicillium expansum as the test organism.
Plates of potato dextrose agar were streaked with a standard culture of Penicillium expansum spores (0.1 ml of a 2×10^5 cfu/ml) and placed in sealed plastic containers (nominal volume 6 liters). The containers (Rubbermaid) were fitted with a small fan (Radio Shack 12VDC) in the lids to ensure good distribution of the test compounds. The plates were exposed to different volumes (2.5 μl, 5 μl, 10 μl, 20 μl, 40 μl, 80 μl, or 120 μl) of standard solutions (1.0 to 4.0 mg/ml) of tested compounds in ethanol, under ambient conditions. After exposing for 24 h, the plates were removed and incubated for a further 48 h, at ambient temperature, and then monitored for growth of the test organism by visual observation.
The following tables provide summary results of three separate studies to determine the minimum amounts of the compounds needed to produce 100% inhibition of growth of the test organism. Results are expressed as minimal volumes (μl/6 L) and amounts (μg/L) required to produce 100% inhibition.

For experiment [1], the system named is Staphylococcus aureus (MRSA) (ATCC 33591). Kind of experiment: MIC and MBC of Compound 1 and analogs, macrodilution. The conditions noted are these: for MIC: 19 h; for MBC: 25 h.
Where [2] appears, read: Experiment #4, read-out: Amount for 100% inhibition (μg compound/L air).
Setting [3] is: Experiment #2, read-out: Amount for 100% inhibition (μg compound/L air).
Where [4] appears, read: read-out: Amount for 100% inhibition (μg compound/L air), Experiment #1.
Setting [5] is: Experiment #5, read-out: Amount for 100% inhibition (μg compound/L air).
[6] abbreviates: Experiment #1, read-out: Amount for 100% inhibition (μg compound/L air).
The mark [7] stands for this setting: Experiment #3, read-out: Amount for 100% inhibition (μg compound/L air).
The mark [8] stands for this setting: Experiment #6, read-out: Amount for 100% inhibition (μg compound/L air).

As for `CCCCCC(=O)N(C)N=O` [Compound 2, N-methyl-N-nitrosohexanamide], the MIC in the experiment on Penicillium expansum (setting [2]) worked out at 0.0043 µg/mL (≈ 0.0272 µM).

With `CC(C)CC(=O)N(C)N=O` [drawing 55], in experiment [1], the MIC was determined as 0.78 µg/mL and the MBC worked out at 25 µg/mL.

Turning to `CCC(=O)N(C)N=O` [drawing 53], in experiment [1], the MIC was 12.5 µg/mL and the MBC came to 25 µg/mL.

Consider `CCCCCCC(=O)N(C)N=O` [Compound 9, N-methyl-N-nitrosoheptanamide], for which the MIC in the experiment with Penicillium expansum (setting [2]) amounted to 0.0075 µg/mL (≈ 0.0435 µM).

For `CC(=O)N(N=O)C(C)C` [Compound 16, N-isopropyl-N-nitrosoacetamide], the MIC in the experiment on Penicillium expansum (setting [3]) is above 0.0806 µg/mL; in the experiment on Penicillium expansum (setting [4]) it was 0.025 µg/mL (≈ 0.192 µM).

On to `CCC(C)C(=O)N(C)N=O` (centres unmarked) [Compound 22, N,2-dimethyl-N-nitrosobutanamide], for which, in the experiment with Penicillium expansum (setting [5]), the MIC was above 0.0152 µg/mL.

Take `C=CC(=O)N(C)N=O` [drawing 51]: in experiment [1], the MIC was above 50 µg/mL and the MBC is above 50 µg/mL.

For the molecule `CCCCCCC(=O)N(C)N=O` [drawing 54], in experiment [1], the MIC came to 6.25 µg/mL and the MBC was found to be 25 µg/mL.

As for `CC(C)C(=O)N(C)N=O` [Compound 10, N-methyl-N-nitrosisopropanamide], in the experiment on Penicillium expansum (Experiment #4), the “Amount for 100% inhibition (μg compound/L air)” value is above 14.4 μg compound/L air.

`C/C=C/C(=O)N(C)N=O` [Compound 8, (2E)-N-methyl-N-nitrosobut-2-enamide]: the MIC with Penicillium expansum (setting [5]) worked out at 0.0075 µg/mL (≈ 0.0585 µM).

Take `CC(=O)N(N=O)C1CC1` [Compound 14, N-cyclopropyl-N-nitrosoacetamide]: the MIC in the experiment with Penicillium expansum (setting [6]) is 0.0278 µg/mL (≈ 0.217 µM).

Regarding `C=CC(=O)N(C)N=O` [Compound 4, N-methyl-N-nitrosoacrylamide], in the experiment on Penicillium expansum (setting [5]), the MIC was 0.0011 µg/mL (≈ 0.00964 µM).

With `CN(N=O)C(=O)C1CCC1` [Compound 5, N-methyl-N-nitrosocyclobutanecarboxamide], in the experiment on Penicillium expansum (setting [5]), the MIC amounted to 0.0012 µg/mL (≈ 0.00844 µM).

Turning to `COCC(=O)N(C)N=O` [drawing 50], in experiment [1], the MIC is 25 µg/mL and the MBC is above 50 µg/mL.

As for `CCCC(=O)N(C)N=O` [Compound 13, N-methyl-N-nitrosobutyramide], the MIC came to 0.0092 µg/mL (≈ 0.0707 µM) in the experiment on Penicillium expansum (setting [6]), 0.0071 µg/mL (≈ 0.0546 µM) in the experiment on Penicillium expansum (setting [3]) and 0.0075 µg/mL (≈ 0.0576 µM) in the experiment on Penicillium expansum (setting [7]).

`CCN(N=O)C(=O)C(C)C` [Compound 11, N-ethyl-N-nitrosoisobutyramide]: the MIC in the experiment with Penicillium expansum (setting [8]) was above 0.0147 µg/mL.

As to `CCCCC(=O)N(C)N=O` [Compound 21, N-methyl-N-nitrosopentanamide], the MIC in the experiment with Penicillium expansum (setting [2]) was determined as 0.0163 µg/mL (≈ 0.113 µM).

Consider `C/C=C/C(=O)N(C)N=O` [drawing 52], for which, in experiment [1], the MIC worked out at 6.25 µg/mL and the MBC came out at 25 µg/mL.

As for `CCCN(N=O)C(C)=O` [Compound 12, N-nitroso-N-propylacetamide], the MIC in the experiment on Penicillium expansum (setting [4]) turned out to be 0.0252 µg/mL (≈ 0.194 µM).

Take `CCC(=O)N(C)N=O` [Compound 20, N-methyl-N-nitrosopropanamide]: the MIC with Penicillium expansum (setting [2]) turned out to be 0.0075 µg/mL (≈ 0.0646 µM).

On to `O=NN1CCCC1=O` [Compound 18, 1-nitrosopyrrolidin-2-one], for which the values for the MIC with Penicillium expansum (setting [3]) and with Penicillium expansum (setting [8]) were above 0.084 µg/mL and above 0.0163 µg/mL, respectively.

For `CN(N=O)C(=O)C1CC1` [Compound 7, N-methyl-N-nitrosocyclopropanecarboxamide], the MIC amounted to 0.0101 µg/mL (≈ 0.0788 µM) in the experiment with Penicillium expansum (setting [6]), 0.01 µg/mL (≈ 0.078 µM) in the experiment on Penicillium expansum (setting [3]) and 0.0082 µg/mL (≈ 0.064 µM) in the experiment on Penicillium expansum (setting [7]).

Take `CC(C)CC(=O)N(C)N=O` [Compound 19, N-3-dimethyl-N-nitrosobutanamide]: the “Amount for 100% inhibition (μg compound/L air)” value in the experiment on Penicillium expansum (Experiment #5) is above 15.5 μg compound/L air.

Consider `COCC(=O)N(C)N=O` [Compound 6, 2-methoxy-N-methyl-N-nitrosoacetamide], for which, in the experiment on Penicillium expansum (setting [8]), the MIC stood at 0.0022 µg/mL (≈ 0.0167 µM).

In the case of `CN(N=O)C(=O)CC1CC1` [Compound 3, 2-cyclopropyl-N-methyl-N-nitrosoacetamide], in the experiment with Penicillium expansum (setting [8]), the MIC was found to be 0.005 µg/mL (≈ 0.0352 µM).

`O=NN1CCCCC1=O` [Compound 17, 1-nitrosopiperidine-2-one]: in the experiment on Penicillium expansum (setting [7]), the MIC is above 0.0036 µg/mL.
